What was measured:
[1] = target: Cerezyme (Recombinant GCase) (Homo sapiens (Human), UniProt P04062, R534H); test: Inactivation assay: residual Cerezyme activity with 2,4-DNP-β-Glc substrate; format: biochemical; settings: 37° C., pH 5.5
Protocol: Inactivation solutions contained a final concentration of 16.55 nM of Cerezyme® (Recombinant GCase) in 200 μL of Reaction Buffer (50 mM acetate, 0.2% v/v Triton X-100, 0.3% w/v sodium taurocholate, pH 5.5). […] These enzyme Reaction Buffers were brought to 37° C. and spiked with a corresponding inhibitor to make the final inhibitor concentration either 20 nM, 40 nM, 60 nM, 80 nM, 120 nM, 160 nM and 200 nM. Once the inhibitor was added this was considered time=0 minutes. Meanwhile a 96 well plate inside a Biotek Synergy 4 hybrid multi-mode reader at 37° C. was being incubated. In the wells of the plate were waiting a high concentration (3.2 mM) of 2,4-DNP-β-Glc substrate in 180 μL of Reaction Buffer. […] Once all the aliquots were added the solution in the wells was measured for absorbance at 400 nm for 8 minutes. […] Inactivation rates for varying inhibitor concentrations were calculated using GraphPad Prism software and Equation 2 (below). […]
Small aliquots of these reaction mixtures were withdrawn and diluted 20-fold in 96 well plates containing a final concentration of 4 mM of the substrate 2,4-DNP-β-D-Glc. […] Residual enzymatic activity at different time points and concentrations was monitored by quantifying the release of 2,4-DNP after 2,4-DNP-3-D-Glc cleavage by Cerezyme®. […]

[2] = target: Cerezyme, a recombinant form of GCase (Homo sapiens (Human), UniProt P04062, R534H); settings: cited from earlier work
[3] = in words; cited from earlier work
GCase over GBA2 and GBA3 = GCase over GBA2 and GBA3 (Homo sapiens (Human), UniProt P04062); settings: in words; cited from earlier work
Sequence of GCase over GBA2 and GBA3 (P04062 40-536): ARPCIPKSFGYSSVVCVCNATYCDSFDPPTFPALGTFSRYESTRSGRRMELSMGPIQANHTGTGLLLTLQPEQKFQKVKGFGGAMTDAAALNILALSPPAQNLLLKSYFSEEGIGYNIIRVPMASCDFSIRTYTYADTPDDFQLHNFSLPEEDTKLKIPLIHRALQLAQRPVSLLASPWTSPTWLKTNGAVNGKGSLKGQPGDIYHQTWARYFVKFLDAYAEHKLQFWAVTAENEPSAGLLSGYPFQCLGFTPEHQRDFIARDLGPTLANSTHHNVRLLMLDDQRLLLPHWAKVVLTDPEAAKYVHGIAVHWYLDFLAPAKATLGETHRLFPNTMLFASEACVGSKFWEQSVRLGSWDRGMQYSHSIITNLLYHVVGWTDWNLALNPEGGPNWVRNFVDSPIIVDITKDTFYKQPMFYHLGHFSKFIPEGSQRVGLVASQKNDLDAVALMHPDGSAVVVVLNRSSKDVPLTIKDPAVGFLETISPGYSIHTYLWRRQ

[4] = target: GCase in the presence of Saposin C (Homo sapiens (Human), UniProt P04062); test: GCase inactivation rate in the presence of Saposin C; format: biochemical; settings: in words
Sequence of GCase in the presence of Saposin C (P04062 40-536): as above

GCase = GCase (Homo sapiens (Human), UniProt P04062); settings: cited from earlier work; for ki/Ki previously reported: previously reported (ref 44)
Sequence of GCase (P04062 40-536): as above

Sequence of Cerezyme (Recombinant GCase) (P04062 40-536 R534H limits assumed): as the sequence (P04062 40-536) above, with R495H counted along it
Sequence of Cerezyme, a recombinant form of GCase (P04062 40-536 R534H limits assumed): as the sequence (P04062 40-536) above, with R495H counted along it

Compound `O[C@H]1[C@H](O)[C@@H](O)[C@H]2[C@@H]([C@@H]1O)N2CCCCC#Cc1ccc(F)cc1` (mixture of isomers) [Compound 34, (±)-(1R,2S,3R,4R,5S,6S)-7-(6-(4-fluorophenyl)hex-5-yn-1-yl)-7-azabicyclo[4.1.0]heptane-2,3,4,5-tetraol] has a ki/Ki [1] of 85000 ± 1670 M⁻¹ s⁻¹.
In the case of `O=[N+]([O-])c1ccc(OC2O[C@H](CO)[C@@H](O)[C@H](O)[C@H]2F)c([N+](=O)[O-])c1` (stereo partly drawn) [Compound 1.1, β-2,4-dinitrophenyl-fluorodeoxyglucose], the t½ of glucosyl-enzyme [2] is listed as over 21.67 h.
In the case of “N-octyl conduritol aziridine [Compound 1.7]”, the cell permeability [3] is listed as “cell permeable”, the “selectivity for GCase over GBA2 and GBA3” value (GCase over GBA2 and GBA3) is listed as “selective inhibition of GCase over GBA2 and GBA3” and the ki/Ki [1] is listed as 78300 ± 4170 M⁻¹ s⁻¹. For the same compound, the “inactivation rates towards GCase with Saposin C” value [4] was “enhanced”, the ki/Ki (GCase; inhibition of GCase, reported data) was 25.0 μM^−1/min^−1 and the ki/Ki previously reported (GCase) was 61170 ± 1170 M⁻¹ s⁻¹. For the same compound, the ki (GCase; rate constant of inactivation of GCase, reported data) was 0.120 min⁻¹.
For butyl conduritol aziridine, the ki/Ki previously reported (GCase) is listed as 63.3 ± 1.7 M⁻¹ s⁻¹.
For hexyl conduritol aziridine, the ki/Ki previously reported (GCase) is given as 10700 ± 500 M⁻¹ s⁻¹.
